Measured values taken from article PMC3391680, “Selective and Specific Inhibition of the Plasmodium falciparum Lysyl-tRNA Synthetase by the Fungal Secondary Metabolite Cladosporin” (Cell Host & Microbe, 2012).
Like-named read-outs stand apart in the source and are kept apart here. *1 amine or outer side, *2 acyl side, *3 side chain or, on linkers, in order; H or OH if unused. Where a SMILES comes first, the peptide text is derived from it. [ ]: non-standard residue; d: D form. X1 = CC(C)([C@@H]1CO1)n1cc([C@@H](O)[C@H](CC(=O)[*:2])N[*:1])c2ccccc21; NMeLeu(5-OH,4R) = CN[C@@H](C[C@@H](C)CO)C(=O)O; Nle(4R-Me-5-ene) = C=C[C@H](C)C[C@H](N)C(=O)O; Phe(βR-OMe) = CO[C@H](c1ccccc1)[C@H](N)C(=O)O; NMeL = CN[C@@H](CC(C)C)C(=O)O

Tests used:
[1] = molecular target: T1, human lysyl-tRNA synthetase (human Krs1) (Homo sapiens, UniProt Q15046); experiment: Transcreener AMP fluorescence polarization aminoacylation assay with recombinant enzyme; weak inhibition; type: biochemical
T1 construct: gene KARS1; purified recombinant human enzyme (Origene TP300311)

[2] = system: T2, Saccharomyces cerevisiae BY4743Δ8; experiment: microbe, parasite or virus in culture; set-up: Yeast growth inhibition, optical density at 600 nm, dose response; conditions: synthetic media, no added lysine, read-out: Cladosporin IC50 (µM) Synthetic media
T2 construct: BY4743Δ8 (eight drug-resistance genes deleted: SNQ2, PDR5, YOR1, PDR1, PDR2, PDR3, YAP1, YRM1)
Method: SUPPLEMENTAL FIGURES Figure S1 | Cladosporin inhibition of S. cerevisiae wild type strain BY4743 and a drug efflux mutant strain BY4743Δ8, related to Figure 1. Yeast growth in the presence of cladosporin was measured by optical density at 600 nm (OD600) and the 30% inhibitory concentration (IC30) and 50% inhibitory concentration (IC50) of cell growth were determined. […] Data were collected from duplicate experiments, normalized with a DMSO control and expressed as the means±SD. A logistic regression curve fit algorithm on the recorded OD600 values was performed to determine the aforementioned IC30 and IC50 values. Strain BY4743Δ8, derived from BY4741 but deleted for eight genes involved in drug resistance (efflux pumps, SNQ2, PDR5, YOR1; transcription factors, PDR1, PDR2, PDR3, YAP1, YRM1) was incubated in 2.5% ethylmethanesulfonate until only 50% of the cells formed colonies. A total of 2 × 10^7 mutagenized CMB970 cells were plated on two 14 cm dishes with synthetic complete medium (0.7 g/l Difco Yeast Nitrogen Base without amino acids, 0.79 g/l MPbio CSM amino acid mixture, 2% glucose) containing 50 μM cladosporin. After 4 days, 37 resistant colonies appeared. […] Of these 37, ten colonies contained nonsynonymous mutations in the KRS1 open reading frame. […] Curves were calculated by taking the 16 hr OD600 measurements and applying a logistic regression curve fit. […]

[3] = molecular target: T3, P. falciparum cytosolic lysyl-tRNA synthetase (PfKrs1) (Plasmodium falciparum, UniProt Q8IDJ8); experiment: Transcreener AMP fluorescence polarization aminoacylation assay with recombinant enzyme; type: biochemical
T3 construct: gene PF3D7_1350100; recombinant PF13_0262, codon-optimized, in pET-28a(+), expressed in E. coli and purified

[4] = system: T2, Saccharomyces cerevisiae BY4743Δ8; experiment: microbe, parasite or virus in culture; set-up: Yeast growth inhibition, optical density at 600 nm, dose response; conditions: rich media, no added lysine, read-out: Cladosporin IC50 (µM) Rich media
Method: SUPPLEMENTAL FIGURES Figure S1 | Cladosporin inhibition of S. cerevisiae wild type strain BY4743 and a drug efflux mutant strain BY4743Δ8, related to Figure 1. Yeast growth in the presence of cladosporin was measured by optical density at 600 nm (OD600) and the 30% inhibitory concentration (IC30) and 50% inhibitory concentration (IC50) of cell growth were determined. Assay plates seeded with the respective strains were grown in rich medium and incubated […] against a 12-point dilution series of cladosporin (0-200 µM). Data were collected from duplicate experiments, normalized with a DMSO control and expressed as the means±SD. A logistic regression curve fit algorithm on the recorded OD600 values was performed to determine the aforementioned IC30 and IC50 values. Strain BY4743Δ8, derived from BY4741 but deleted for eight genes involved in drug resistance (efflux pumps, SNQ2, PDR5, YOR1; transcription factors, PDR1, PDR2, PDR3, YAP1, YRM1) was incubated in 2.5% ethylmethanesulfonate until only 50% of the cells formed colonies. […] Of these 37, ten colonies contained nonsynonymous mutations in the KRS1 open reading frame. […] Curves were calculated by taking the 16 hr OD600 measurements and applying a logistic regression curve fit. […]

[5] = system: T4, Plasmodium falciparum Dd2; experiment: microbe, parasite or virus in culture; set-up: species or system Plasmodium falciparum Dd2 in human erythrocytes; Asexual blood-stage parasite proliferation, SYBR Green I DNA fluorescence; conditions: DD2, Erythrocyte, 72 h, read-out: IC50 values (nM)
T4 construct: Dd2
Method: Powershot G10 camera attached to the microscope and imported in Adobe Photoshop and Illustrator for image sizing and figure generation, respectively. SYBR Green cell proliferation assay. Compounds were tested for activity against asexual blood stage parasites using a previously described screening method (Plouffe et al., 2008). […] Toxoplasma gondii culturing and assay methods. The tachyzoite stage of Toxoplasma gondii (RH1, GFP-luc) was maintained by serial passage in human foreskin fibroblasts (HFF) cultured in Hank’s Buffered Salt Solution (HBSS) supplemented with 10% FBS, 2 mM L-glutamine, and 100 μg penicillin/100 μg streptomycin per milliliter maintained at 37 °C and 5% CO2. Parasites were harvested for use in assays by syringe lysis of infected HFF monolayers. Parasites were then centrifuged at 1,200 × g for 6 min and resuspended in HBSS supplemented with 10 mM Hepes, pH 7.0, and 1% (v/v) dialyzed FBS. All buffers were filter sterilized by passage through a […] Millipore Syringe Filter. Approximately 50,000 parasites and 5,000 HFF cell were incubated with compounds for 48 hours at 37 °C. Parasite and host cell proliferation rates were then determined using Bright-Glo® and CellTiter-Glo® (Promega). Maintenance, synchronization and imaging of erythrocytic stage P. falciparum cultures. A clonal stock of the P. falciparum line Dd2 (parental clone) was established by limiting dilution from a Dd2 isolate (MRA-156) obtained from the Malaria Research and Reference Reagent Resource Center (MR4; American Type Culture Collection), and used throughout these studies. All P. falciparum parasites were cultured in human erythrocytes and complete culturing media (CM) as previously described (Dharia et al., 2009). Highly synchronous cultures were achieved using the sorbitol synchronization method (Lambros and Vanderberg, 1979). Visualization of parasites were performed on Giemsa-stained thin blood smears under a 100x oil immersion objective on a Zeiss Primo Star light microscope. Digital images were captured using a Canon

T1 sequence (Q15046 2-597): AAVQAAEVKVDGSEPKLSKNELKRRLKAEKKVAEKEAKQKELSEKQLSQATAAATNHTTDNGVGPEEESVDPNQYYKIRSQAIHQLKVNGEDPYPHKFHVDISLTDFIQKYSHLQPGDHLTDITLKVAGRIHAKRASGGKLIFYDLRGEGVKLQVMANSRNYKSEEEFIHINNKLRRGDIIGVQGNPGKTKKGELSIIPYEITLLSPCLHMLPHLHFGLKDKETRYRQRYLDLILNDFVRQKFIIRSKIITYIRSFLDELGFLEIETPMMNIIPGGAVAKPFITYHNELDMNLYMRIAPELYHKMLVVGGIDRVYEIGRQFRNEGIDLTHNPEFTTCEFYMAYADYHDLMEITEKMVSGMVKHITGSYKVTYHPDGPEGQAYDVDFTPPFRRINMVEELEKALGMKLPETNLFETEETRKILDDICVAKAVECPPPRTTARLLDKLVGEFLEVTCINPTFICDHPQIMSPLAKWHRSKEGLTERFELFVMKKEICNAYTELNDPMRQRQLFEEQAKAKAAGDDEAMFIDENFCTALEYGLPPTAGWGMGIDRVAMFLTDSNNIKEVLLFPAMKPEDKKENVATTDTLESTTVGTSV
T3 sequence (Q8IDJ8 entry or part of it): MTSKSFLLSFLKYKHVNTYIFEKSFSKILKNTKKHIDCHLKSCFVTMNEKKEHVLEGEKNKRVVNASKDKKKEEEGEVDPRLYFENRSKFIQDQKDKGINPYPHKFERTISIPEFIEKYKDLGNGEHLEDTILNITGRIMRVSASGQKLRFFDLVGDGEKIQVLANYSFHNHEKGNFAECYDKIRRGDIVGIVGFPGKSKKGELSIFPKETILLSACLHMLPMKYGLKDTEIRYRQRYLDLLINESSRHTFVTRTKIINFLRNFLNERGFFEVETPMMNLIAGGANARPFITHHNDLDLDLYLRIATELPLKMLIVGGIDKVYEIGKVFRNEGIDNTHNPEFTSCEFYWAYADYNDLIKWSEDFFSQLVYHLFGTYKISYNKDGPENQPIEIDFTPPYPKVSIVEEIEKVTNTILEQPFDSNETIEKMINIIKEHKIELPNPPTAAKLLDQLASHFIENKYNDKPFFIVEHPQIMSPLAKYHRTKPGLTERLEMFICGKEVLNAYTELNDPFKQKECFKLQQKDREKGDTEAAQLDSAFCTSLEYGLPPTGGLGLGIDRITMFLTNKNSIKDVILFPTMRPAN

Work on `C[C@H]1CCC[C@H](C[C@H]2Cc3cc(O)cc(O)c3C(=O)O2)O1` [cladosporin] yielded an IC50 [1] greater than 20000 nM, an IC50 [2] of 18.4 µM and an IC50 [3] of 61 nM. The IC50 [4] was 7.92 µM.
Compound `O=C1C(O)=C([C@H]2CC[C@H](c3ccc(Cl)cc3)CC2)C(=O)c2ccccc21` [ATQ, atovaquone] has an IC50 [5] of 0.8 ± 0.2 nM.
With `CCc1nc(N)nc(N)c1-c1ccc(Cl)cc1` [PYR, pyrimethamine] the IC50 [5] was greater than 10000 nM.
With `C=C[C@H](C)C[C@@H]1NC(=O)[C@H](CC(C)C)N(C)C(=O)[C@H](C(C)C)NC(=O)[C@H]([C@H](OC)c2ccccc2)NC(=O)[C@H](C)NC(=O)[C@H](C[C@@H](C)CO)N(C)C(=O)C[C@@H]([C@H](O)c2cn(C(C)(C)[C@@H]3CO3)c3ccccc23)NC1=O` [CycA, cyclomarin A] (cyclo(A[Phe(βR-OMe)]V[NMeL][Nle(4R-Me-5-ene)][X1][NMeLeu(5-OH,4R)])) the IC50 [5] was 48.8 ± 10.1 nM.
Work on `O[C@@H](c1cc(C(F)(F)F)nc2c(C(F)(F)F)cccc12)[C@H]1CCCCN1` (racemic) [MFQ, mefloquine] yielded an IC50 [5] of 9 nM.
